Assay results published in paper PMC11434342, “Novel Autotaxin Inhibitor ATX-1d Significantly Enhances Potency of Paclitaxel—An In Silico and In Vitro Study” (Molecules, 2024).

Columns and labels:
[1] = target: T1, autotaxin (ATX) (Homo sapiens, UniProt Q13822); experiment: biochemical; design: Inhibition of hydrolysis of fluorogenic lysophospholipid substrate FS-3 by recombinant human autotaxin, fluorescence read-out; details: read-out: % inhibition in ATX assay at 10 µM
T1 construct: gene ENPP2; human recombinant ATX (hATX)
Protocol: Human recombinant ATX (hATX) was purified as previously described. The enzymatic activity of ATX was assessed by measuring the hydrolysis of the synthetic lipid-like FRET-based substrate FS-3 from Echelon Biosciences. Compounds predicted to have potential inhibitory effects through molecular docking were initially screened at a concentration of 10 μM. The reaction mixtures were prepared in 60 μL volumes and loaded into triplicate wells of black-wall 96-well plates. The assay buffer consisted of 50 mM Tris, 140 mM NaCl, 5 mM KCl, 1 mM CaCl2, 1 mM MgCl2, and 10 μM BSA, with the pH adjusted to 8.0. Each assay contained 4 nM ATX and 1 μM FS-3. The test compounds were diluted in an assay buffer and tested in technical triplicates. […] Fluorescence readings were taken at 2 min intervals over 1 h using excitation and emission wavelengths of 485 and 538 nm. Fluorescence data were collected as relative fluorescence units (RFUs) and averaged for the triplicate samples. A compound was considered an experimentally validated hit if it caused more than 50% inhibition of FS-3 hydrolysis at 10 µM concentration. For dose–response studies, nonlinear regression analysis was performed using GraphPad Prism (GraphPad Software, version 10.0.2 (232), San Diego, CA, USA). A variable four-parameter slope model was applied to fit the data, allowing for determining the Hill slope and interpolation of the IC50 ± SD. Fluorescence measurements were conducted using the CLARIOstar Plus plate reader from BMG Labtech (BMG Labtech, Ortenberg, Baden-Württemberg, Germany). Inhibition assays targeting the ATX-mediated hydrolysis of FS-3 were performed with 45 selected compounds, each at a fixed concentration of 10 μM. Compounds were classified as experimentally validated hits if they achieved more than 50% inhibition of the hydrolysis of the model lysophospholipase D substrate FS-3. From this initial screening, only one compound, ATX-1d, met this criterion (Supplementary Information, Table S1). ATX-1d was then subjected to a dose–response assay to determine its IC50 value (Figure 4). […] BMP-22, a previously validated inhibitor of ATX, was used as a control. The second replicate is shown in the Supplementary Information, Figure S2.

[2] = target: T1, autotaxin (ATX); experiment: FS-3 fluorogenic substrate hydrolysis, dose-response with purified recombinant ATX ([…]); type: biochemical

## COC(=O)/C(=C1\C(=O)N(C)C(=O)C1(c1ccccn1)C1CC(=O)N(C)C1=O)c1ccc(C(C)(C)C)cc1 (centres unmarked) [ATX-1a]
[1]
  inhibition at 10 µM: 42.5%

## CCN1C(=O)CC(C2(c3ccccn3)C(=O)N(CC)C(=O)/C2=C(\C(=O)OC)c2ccccc2)C1=O (centres unmarked) [ATX-1b]
[1]
  inhibition at 10 µM: 3.59%

## CCOC(=O)/C(=C1\C(=O)N(C)C(=O)C1(c1ccccn1)C1CC(=O)N(C)C1=O)c1ccc(C)cc1 (centres unmarked) [ATX-1f]
[1]
  inhibition at 10 µM: -0.36%

## CCN1C(=O)CC(C2(c3ccccn3)C(=O)N(CC)C(=O)/C2=C(\C(=O)OC)c2cccc(OC)c2)C1=O (centres unmarked) [ATX-1h]
[1]
  inhibition at 10 µM: 7.6%

## CCN1C(=O)CC(C2(c3ccccn3)C(=O)N(CC)C(=O)/C2=C(\C(=O)OC)c2ccc(F)cc2)C1=O (centres unmarked) [ATX-1i]
[1]
  inhibition at 10 µM: 10%

## CCC1=N[C@](C(=O)OC)(c2ccc(Br)cc2)[C@@H]2C(=O)N(C)C(=O)C12 (some centres unmarked) [ATX-2a]
[1]
  inhibition at 10 µM: 19%

## CCC1=N[C@](C(=O)OC)(c2ccc(Br)cc2)[C@@H]2C(=O)N(Cc3ccccc3)C(=O)C12 (some centres unmarked) [ATX-2b]
[1]
  inhibition at 10 µM: 24.9%

## CCC1=N[C@](C(=O)OC)(c2cccc(OC)c2)[C@@H]2C(=O)N(C)C(=O)C12 (some centres unmarked) [ATX-2c]
[1]
  inhibition at 10 µM: 13%

## CCN1C(=O)C2C(C)=N[C@](C(=O)OC)(c3cccc(OC)c3)[C@@H]2C1=O (some centres unmarked) [ATX-2d]
[1]
  inhibition at 10 µM: 4.61%

## CCC1=N[C@](C(=O)OC)(c2ccc(Br)cc2)[C@@H]2C(=O)N(CC)C(=O)C12 (some centres unmarked) [ATX-2e]
[1]
  inhibition at 10 µM: 10.1%

## CCC1=N[C@](C(=O)OC)(c2ccccc2)[C@@H]2C(=O)N(Cc3ccccc3)C(=O)C12 (some centres unmarked) [ATX-2g]
[1]
  inhibition at 10 µM: 3.38%

## COC(=O)C1(c2ccc(Cl)cc2)OC(c2ccc(F)cc2F)C2C(=O)N(c3ccccc3)C(=O)C21 (centres unmarked) [ATX-3c]
[1]
  inhibition at 10 µM: -35.9%

## COC(=O)C1(c2ccc(Cl)cc2)OC(c2cccc(OC)c2)C2C(=O)N(c3ccccc3)C(=O)C21 (centres unmarked) [ATX-3f]
[1]
  inhibition at 10 µM: 5.8%

## COC(=O)C1(c2ccccc2)OC(c2cccc(OC)c2)C2C(=O)N(c3ccccc3)C(=O)C21 (centres unmarked) [ATX-3g]
[1]
  inhibition at 10 µM: -30.1%

## CCN1C(=O)C2C(c3cccc(F)c3)OC(C(=O)OC)(c3ccc(C(C)(C)C)cc3)C2C1=O (centres unmarked) [ATX-3h]
[1]
  inhibition at 10 µM: -5.76%

## COC(=O)C1(c2ccccc2)OC(c2cccc(F)c2)C2C(=O)N(c3ccccc3)C(=O)C21 (centres unmarked) [ATX-3i]
[1]
  inhibition at 10 µM: -37.4%

## COC(=O)C1(c2cccc(OC)c2)OC(c2cccc(Cl)c2)C2C(=O)N(Cc3ccccc3)C(=O)C21 (centres unmarked) [ATX-3j]
[1]
  inhibition at 10 µM: 16.2%

## COC(=O)C(OCCCCOC1=CC(=O)CC(C)(C)C1)c1ccc(Br)cc1 (centres unmarked) [ATX-4a]
[1]
  inhibition at 10 µM: 18.7%

## COC(=O)C(OCCCCOC1=CC(=O)CC(C)(C)C1)c1cccc(OC)c1 (centres unmarked) [ATX-4b]
[1]
  inhibition at 10 µM: 12.6%

## COC(=O)C(OCCCCOC1=CC(=O)CC(C)(C)C1)c1ccc(C(C)(C)C)cc1 (centres unmarked) [ATX-4c]
[1]
  inhibition at 10 µM: -19.6%

## Cc1ccccc1C(OCCCCOC1=CC(=O)CC(C)(C)C1)C(=O)OCc1ccccc1 (centres unmarked) [ATX-4e]
[1]
  inhibition at 10 µM: 33.6%

## COC(=O)C(OCCCCOC1=CC(=O)CC(C)(C)C1)c1cccc(Cl)c1 (centres unmarked) [ATX-4f]
[1]
  inhibition at 10 µM: 40.7%

## COC(=O)C(OCCCCOC1=CC(=O)CC(C)(C)C1)c1ccccc1 (centres unmarked) [ATX-4g]
[1]
  inhibition at 10 µM: 32.6%

## COC(=O)C(OCCCCOC1=CC(=O)CC(C)(C)C1)c1cccc(C(F)(F)F)c1 (centres unmarked) [ATX-4i]
[1]
  inhibition at 10 µM: 15.2%

## COC(=O)C(OCCCCOC1=CC(=O)CC(C)(C)C1)c1cccc(F)c1 (centres unmarked) [ATX-4j]
[1]
  inhibition at 10 µM: 41.4%

## CCOC(=O)C1C(C(=O)OCC)C12C(=O)N(C(C)=O)c1ccccc12 (centres unmarked) [ATX-5c]
[1]
  inhibition at 10 µM: -4.52%

## CCOC(=O)C1C(C(=O)OCC)C12C(=O)N(C(=O)OC(C)(C)C)c1ccc(Br)cc12 (centres unmarked) [ATX-5g]
[1]
  inhibition at 10 µM: -0.48%

## CCOC(=O)C1C(C(=O)OCC)C12C(=O)N(C(C)=O)c1ccc(C)cc12 (centres unmarked) [ATX-5j]
[1]
  inhibition at 10 µM: -10.2%

## CCCCCCCCCCCCCCCc1ccc(CP(=O)(O)O)cc1 [BMP-22, reference compound]
[2]
  IC50: 200 ± 100 nM
